In patent US20060110439A1, “Dermal delivery of n-methyl-glucamine and n-methyl-glucamine compounds” (Dynamis Therapeutics, Inc., priority 2004, published 2006):

Experiments:
[1] = system: 3DG-dependent crosslinking of collagen type I; test: Inhibition of 3DG collagen crosslinking in vitro (CnBr digest, SDS-PAGE); format: biochemical; conditions: calf skin collagen type 1, 5 mM 3DG plus 10 mM arginine, 24 hr
Experimental: The direct inactivation of 3DG is a method of reducing 3DG levels. Calf skin collagen type 1 (1.3 mg) was incubated with no addition, with 5 mM 3DG, or with 5 mM 3DG plus 10 mM of arginine for 24 hr. Each sample was digested with cyanogen bromide (CnBr) to create peptide fragments that are visualized by sodium-dodecyl sulfate-polyacrylamide gel electrophoresis (SDS-PAGE) (FIG. 4). Lane 2 is collagen alone; lane 3 is collagen plus 5 mM 3DG; and lane 4 is collagen plus 5 mM 3DG plus 10 mM arginine. Lanes 5, 6, and 7 are the same, but with twice as much sample applied.
Crosslinking was assessed by visually determining the amount of high molecular weight protein remaining near the origin of the resolving gel, as compared to the amount that migrates into the gel matrix. The more crosslinking that exists, the more material there is near the origin of the gel. The lanes containing collagen with 3DG (#3, #6) have more material residing at the origin than those containing collagen alone (#2, #5).

3DG = conditions: in vivo; cited from earlier work

Structure (SMILES) | 3DG crosslinking of collagen (high molecular weight protein near gel origin, visual) [1] | urinary or plasma 3DG (3DG)
N=C(N)NCCC[C@H](N)C(=O)O [arginine] | able to inactivate 3DG and prevent it from crosslinking collagen | –
N[C@@H](CCCCNC[C@H](O)[C@@H](O)[C@@H](O)[C@H](O)CO)C(=O)O [galactitollysine] | – | reduced
N[C@@H](CCCCNC[C@@H](O)[C@@H](O)[C@H](O)[C@H](O)CO)C(=O)O [mannitollysine] | – | reduced
CNC[C@H](O)[C@@H](O)[C@H](O)[C@H](O)CO [meglumine, N-methyl glucamine] | – | reduced
N[C@@H](CCCCNC[C@H](O)[C@@H](O)[C@H](O)[C@H](O)CO)C(=O)O [sorbitollysine] | – | reduced
